Each block holds one compound with its values, some of them ahead of it. Active and inactive are the calls of the source.
Tests used:
[1] = molecular target: Mothers against decapentaplegic homolog 3 (Homo sapiens, UniProt P84022); assay: SMAD3 transcription factor inhibitors, dose response (AID 715); format: functional
[2] = molecular target: Sphingosine 1-phosphate receptor 2 (Homo sapiens, UniProt O95136); assay: Dose Response Cell Based Assay for Antagonists of the S1P2 Receptor. [Related pubchem assays: 856, 736 ]; format: functional
Chain of Sphingosine 1-phosphate receptor 2 (O95136 whole entry): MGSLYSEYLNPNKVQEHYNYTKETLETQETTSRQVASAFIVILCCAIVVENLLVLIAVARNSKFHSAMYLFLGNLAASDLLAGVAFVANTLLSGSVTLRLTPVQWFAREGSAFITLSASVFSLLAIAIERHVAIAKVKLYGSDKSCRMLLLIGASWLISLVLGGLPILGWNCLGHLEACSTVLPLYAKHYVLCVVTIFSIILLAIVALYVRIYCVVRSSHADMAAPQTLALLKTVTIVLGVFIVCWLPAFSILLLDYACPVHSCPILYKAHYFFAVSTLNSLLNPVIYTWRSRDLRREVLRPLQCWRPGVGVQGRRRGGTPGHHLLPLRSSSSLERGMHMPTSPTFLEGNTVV

[3] = molecular target: Transitional endoplasmic reticulum ATPase (Homo sapiens, UniProt P55072, C522A); assay: C522A mutant p97 ATPase inhibitors, dose response, counter-screen for p97 inhibitor project, biochemical, luminescence (AID 1544)
Chain of Transitional endoplasmic reticulum ATPase (P55072 2-806 C522A limits assumed): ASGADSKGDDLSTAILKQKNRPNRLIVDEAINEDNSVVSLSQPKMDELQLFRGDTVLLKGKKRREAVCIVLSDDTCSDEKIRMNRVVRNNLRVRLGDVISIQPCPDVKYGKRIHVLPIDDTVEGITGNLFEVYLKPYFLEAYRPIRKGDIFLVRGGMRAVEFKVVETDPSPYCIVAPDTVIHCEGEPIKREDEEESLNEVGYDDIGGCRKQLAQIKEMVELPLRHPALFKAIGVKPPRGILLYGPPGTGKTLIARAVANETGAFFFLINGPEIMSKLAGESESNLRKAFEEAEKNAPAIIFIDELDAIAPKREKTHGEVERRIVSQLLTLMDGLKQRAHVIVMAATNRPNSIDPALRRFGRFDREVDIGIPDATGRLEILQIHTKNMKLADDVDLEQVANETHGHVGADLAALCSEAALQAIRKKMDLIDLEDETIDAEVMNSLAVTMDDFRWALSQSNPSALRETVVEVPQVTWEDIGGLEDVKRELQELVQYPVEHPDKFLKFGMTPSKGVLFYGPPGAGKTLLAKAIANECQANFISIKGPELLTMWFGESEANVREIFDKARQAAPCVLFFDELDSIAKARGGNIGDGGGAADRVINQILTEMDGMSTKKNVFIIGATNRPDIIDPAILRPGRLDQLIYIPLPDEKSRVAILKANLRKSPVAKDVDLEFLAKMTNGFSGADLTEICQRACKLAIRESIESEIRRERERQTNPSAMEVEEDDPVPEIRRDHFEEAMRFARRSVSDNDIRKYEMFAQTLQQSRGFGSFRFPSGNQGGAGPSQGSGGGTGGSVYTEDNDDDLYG

[4] = molecular target: Peroxisome proliferator-activated receptor gamma/Nuclear receptor corepressor 2 (Homo sapiens, UniProt P37231+Q9Y618); format: functional
Chain of Peroxisome proliferator-activated receptor gamma/Nuclear receptor corepressor 2 (P37231 whole entry): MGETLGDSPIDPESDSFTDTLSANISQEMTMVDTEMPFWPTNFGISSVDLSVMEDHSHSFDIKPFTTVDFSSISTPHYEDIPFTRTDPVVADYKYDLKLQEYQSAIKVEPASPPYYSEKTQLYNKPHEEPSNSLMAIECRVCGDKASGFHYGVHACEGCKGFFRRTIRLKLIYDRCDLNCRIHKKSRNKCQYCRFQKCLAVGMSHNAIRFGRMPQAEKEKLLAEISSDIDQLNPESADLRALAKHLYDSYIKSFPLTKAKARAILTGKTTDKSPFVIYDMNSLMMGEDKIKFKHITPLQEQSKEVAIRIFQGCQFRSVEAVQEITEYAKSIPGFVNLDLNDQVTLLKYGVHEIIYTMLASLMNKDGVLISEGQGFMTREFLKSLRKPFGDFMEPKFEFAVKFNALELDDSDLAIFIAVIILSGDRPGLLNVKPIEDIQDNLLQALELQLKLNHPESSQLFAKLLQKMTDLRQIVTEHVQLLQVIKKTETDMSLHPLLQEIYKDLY
Chain of Peroxisome proliferator-activated receptor gamma/Nuclear receptor corepressor 2 (Q9Y618 whole entry): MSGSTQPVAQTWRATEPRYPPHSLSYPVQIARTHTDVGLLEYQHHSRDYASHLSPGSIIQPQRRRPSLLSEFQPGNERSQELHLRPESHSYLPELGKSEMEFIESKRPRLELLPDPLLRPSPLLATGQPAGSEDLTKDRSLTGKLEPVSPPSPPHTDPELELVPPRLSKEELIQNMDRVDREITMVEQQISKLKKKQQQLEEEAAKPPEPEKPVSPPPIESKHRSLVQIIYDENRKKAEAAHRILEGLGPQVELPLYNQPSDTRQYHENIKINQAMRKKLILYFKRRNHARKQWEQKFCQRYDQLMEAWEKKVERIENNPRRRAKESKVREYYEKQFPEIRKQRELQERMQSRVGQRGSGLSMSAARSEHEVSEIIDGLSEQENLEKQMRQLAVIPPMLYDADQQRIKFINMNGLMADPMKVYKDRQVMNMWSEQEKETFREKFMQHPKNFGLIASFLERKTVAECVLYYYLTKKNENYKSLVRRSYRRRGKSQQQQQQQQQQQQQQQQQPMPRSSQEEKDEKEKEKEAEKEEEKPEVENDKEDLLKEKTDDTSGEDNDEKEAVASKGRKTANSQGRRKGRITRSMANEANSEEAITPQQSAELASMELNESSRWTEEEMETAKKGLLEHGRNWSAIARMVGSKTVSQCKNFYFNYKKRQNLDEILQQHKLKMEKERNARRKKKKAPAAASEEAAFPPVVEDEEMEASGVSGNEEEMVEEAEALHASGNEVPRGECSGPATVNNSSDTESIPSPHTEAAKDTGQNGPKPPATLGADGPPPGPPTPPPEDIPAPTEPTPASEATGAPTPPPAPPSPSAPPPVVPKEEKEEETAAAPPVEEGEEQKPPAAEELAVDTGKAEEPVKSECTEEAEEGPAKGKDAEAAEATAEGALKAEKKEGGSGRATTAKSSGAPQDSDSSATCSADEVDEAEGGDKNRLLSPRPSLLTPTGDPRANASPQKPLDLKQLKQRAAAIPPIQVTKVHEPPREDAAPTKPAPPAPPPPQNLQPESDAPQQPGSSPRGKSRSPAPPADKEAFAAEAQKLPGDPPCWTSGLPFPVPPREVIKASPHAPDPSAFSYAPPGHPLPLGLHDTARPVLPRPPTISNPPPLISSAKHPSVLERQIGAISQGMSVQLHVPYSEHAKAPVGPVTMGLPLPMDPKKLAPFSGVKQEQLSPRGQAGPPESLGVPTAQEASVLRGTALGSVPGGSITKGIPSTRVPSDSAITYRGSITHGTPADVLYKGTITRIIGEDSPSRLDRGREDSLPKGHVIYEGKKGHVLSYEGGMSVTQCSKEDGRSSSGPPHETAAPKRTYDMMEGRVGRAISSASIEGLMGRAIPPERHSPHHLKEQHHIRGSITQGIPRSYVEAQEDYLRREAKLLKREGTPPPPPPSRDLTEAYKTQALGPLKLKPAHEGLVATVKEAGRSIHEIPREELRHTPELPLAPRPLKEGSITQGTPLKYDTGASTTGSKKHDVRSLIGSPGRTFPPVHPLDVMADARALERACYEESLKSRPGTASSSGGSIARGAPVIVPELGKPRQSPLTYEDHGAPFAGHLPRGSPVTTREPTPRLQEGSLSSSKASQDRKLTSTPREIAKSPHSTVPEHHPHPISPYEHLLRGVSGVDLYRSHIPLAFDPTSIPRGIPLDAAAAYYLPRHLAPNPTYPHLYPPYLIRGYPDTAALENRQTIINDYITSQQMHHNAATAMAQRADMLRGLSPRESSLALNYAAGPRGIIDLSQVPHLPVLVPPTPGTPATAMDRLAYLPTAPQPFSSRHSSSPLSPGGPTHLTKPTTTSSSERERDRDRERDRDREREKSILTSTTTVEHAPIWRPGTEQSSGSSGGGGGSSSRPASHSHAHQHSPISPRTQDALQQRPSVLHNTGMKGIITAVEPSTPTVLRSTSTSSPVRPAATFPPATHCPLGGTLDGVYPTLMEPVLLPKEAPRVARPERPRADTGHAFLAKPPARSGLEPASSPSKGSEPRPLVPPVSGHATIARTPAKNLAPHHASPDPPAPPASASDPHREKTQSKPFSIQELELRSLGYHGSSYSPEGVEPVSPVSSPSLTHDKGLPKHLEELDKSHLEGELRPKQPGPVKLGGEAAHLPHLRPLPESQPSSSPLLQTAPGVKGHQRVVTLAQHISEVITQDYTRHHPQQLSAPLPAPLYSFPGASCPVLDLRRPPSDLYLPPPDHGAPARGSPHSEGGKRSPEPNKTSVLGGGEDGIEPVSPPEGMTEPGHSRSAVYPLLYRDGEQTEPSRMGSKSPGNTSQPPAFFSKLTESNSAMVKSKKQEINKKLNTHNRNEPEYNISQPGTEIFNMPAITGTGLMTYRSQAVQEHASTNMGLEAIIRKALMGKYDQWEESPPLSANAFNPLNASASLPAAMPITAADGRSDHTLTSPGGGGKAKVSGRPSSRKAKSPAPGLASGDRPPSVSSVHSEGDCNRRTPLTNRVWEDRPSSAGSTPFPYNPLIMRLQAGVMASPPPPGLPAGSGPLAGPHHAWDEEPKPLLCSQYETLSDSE

[5] = inhibitors of SNCA 5'UTR-driven reporter translation, confirmation, H4 neuroglioma cells, luminescence (AID 1988); format: functional, cell-based
[6] = molecular target: T1, Zinc finger protein mex-5 (Caenorhabditis elegans, UniProt Q9XUB2); assay: MEX-5/TCR-2 RNA interaction inhibitors, dose response, biochemical, C. elegans, fluorescence polarization (AID 1960)
T1 sequence (Q9XUB2 whole entry): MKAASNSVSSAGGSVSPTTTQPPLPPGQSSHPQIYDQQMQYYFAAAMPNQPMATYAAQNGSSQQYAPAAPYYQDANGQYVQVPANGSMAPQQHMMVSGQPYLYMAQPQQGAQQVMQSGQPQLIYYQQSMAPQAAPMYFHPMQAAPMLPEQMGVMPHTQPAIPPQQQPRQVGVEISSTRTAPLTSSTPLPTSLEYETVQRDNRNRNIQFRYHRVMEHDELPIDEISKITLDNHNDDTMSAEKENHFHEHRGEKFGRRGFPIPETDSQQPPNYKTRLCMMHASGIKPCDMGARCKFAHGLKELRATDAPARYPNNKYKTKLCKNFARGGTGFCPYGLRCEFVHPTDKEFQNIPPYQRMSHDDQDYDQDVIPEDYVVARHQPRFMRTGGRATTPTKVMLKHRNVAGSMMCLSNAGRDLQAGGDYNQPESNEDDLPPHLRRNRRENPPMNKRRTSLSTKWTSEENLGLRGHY

[7] = control 3'UTR Renilla luciferase suppression, dose response, counter-screen for Shn3 inhibitor project, cell-based, Clone20-Shn3RL, cherry-picked (AID 624133); format: functional
[8] = Shn3 3'UTR reporter inhibitors, dose response, cell-based, Clone20 osteoblasts, firefly luciferase, cherry-picked (AID 624132); format: functional;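 further: firefly luciferase luminescence from reporter carrying the Shn3 3'UTR in osteoblasts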
cells = format: functional, cell-based
BJ = assay: cytotoxicity toward BJ-TERT fibroblasts, dose response, cell-based, RAS-independent, luminescence (AID 1933); format: functional; details: Homo sapiens
[9] = cytotoxicity toward DRD oncogenic fibroblasts, dose response, cell-based, non-viral oncogenic, luminescence (AID 1934); format: functional; details: Homo sapiens
[10] = molecular target: Heat shock protein HSP 90-alpha (Homo sapiens, UniProt P07900); format: functional, organism-based
Caspase-7 = Caspase-7 (Homo sapiens, UniProt P55210); assay: human caspase-7 inhibitors, dose response, selectivity assay for caspase-6 inhibitor project, biochemical, DEVD-R110 fluorescence, cherry-pick (AID 743295)
Chain of Caspase-7 (P55210 24-198 limits assumed): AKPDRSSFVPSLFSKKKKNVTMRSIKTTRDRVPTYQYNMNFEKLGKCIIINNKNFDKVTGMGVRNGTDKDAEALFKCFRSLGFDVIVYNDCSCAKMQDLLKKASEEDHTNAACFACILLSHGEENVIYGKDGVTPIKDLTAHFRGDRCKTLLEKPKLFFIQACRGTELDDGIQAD
Chain of Caspase-7 (P55210 207-303 limits assumed): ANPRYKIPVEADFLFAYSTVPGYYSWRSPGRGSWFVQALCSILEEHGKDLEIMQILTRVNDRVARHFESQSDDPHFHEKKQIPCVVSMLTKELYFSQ

[11] = molecular target: T2, Sentrin-specific protease 6 (Homo sapiens, UniProt Q9GZR1); assay: SAR Analysis of small molecule inhibitors of Sentrin-specific protease 6 (SENP6) using a Luminescent assay. [Related pubchem assays (depositor defined):AID2582, AID2599]; format: functional
T2 sequence (Q9GZR1 whole entry): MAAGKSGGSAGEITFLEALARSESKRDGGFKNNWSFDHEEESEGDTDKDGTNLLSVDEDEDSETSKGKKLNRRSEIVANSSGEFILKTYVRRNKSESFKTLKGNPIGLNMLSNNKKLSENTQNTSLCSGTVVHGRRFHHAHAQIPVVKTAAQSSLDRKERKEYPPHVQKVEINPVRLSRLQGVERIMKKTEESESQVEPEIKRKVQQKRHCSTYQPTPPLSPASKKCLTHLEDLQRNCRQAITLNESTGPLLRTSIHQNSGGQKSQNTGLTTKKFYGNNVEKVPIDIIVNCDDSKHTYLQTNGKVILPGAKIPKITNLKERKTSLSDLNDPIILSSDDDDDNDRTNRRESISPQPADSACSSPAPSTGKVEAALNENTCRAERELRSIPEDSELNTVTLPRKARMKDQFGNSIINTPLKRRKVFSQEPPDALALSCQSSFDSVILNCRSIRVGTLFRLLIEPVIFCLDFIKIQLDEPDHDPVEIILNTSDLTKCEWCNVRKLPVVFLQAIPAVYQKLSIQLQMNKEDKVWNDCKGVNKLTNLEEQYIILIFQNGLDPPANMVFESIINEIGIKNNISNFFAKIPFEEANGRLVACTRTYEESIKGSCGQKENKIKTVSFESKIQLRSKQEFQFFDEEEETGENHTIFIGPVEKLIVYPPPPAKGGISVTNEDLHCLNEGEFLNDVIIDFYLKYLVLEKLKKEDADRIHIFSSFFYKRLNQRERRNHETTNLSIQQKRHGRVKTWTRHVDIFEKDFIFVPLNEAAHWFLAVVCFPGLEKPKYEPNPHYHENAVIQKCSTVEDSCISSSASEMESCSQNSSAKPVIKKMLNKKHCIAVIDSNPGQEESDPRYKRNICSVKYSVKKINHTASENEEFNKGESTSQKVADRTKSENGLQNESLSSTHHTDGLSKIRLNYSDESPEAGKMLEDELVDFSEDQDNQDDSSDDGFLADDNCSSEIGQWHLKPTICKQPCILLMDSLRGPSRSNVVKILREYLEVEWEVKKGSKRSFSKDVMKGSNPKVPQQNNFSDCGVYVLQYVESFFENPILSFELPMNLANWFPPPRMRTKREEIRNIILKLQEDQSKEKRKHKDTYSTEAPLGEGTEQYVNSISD

Caspase-3 = molecular target: T3, Caspase-3 (Homo sapiens, UniProt P42574); assay: SAR Analysis of small molecule inhibitors of Sentrin-specific proteases (SENPs) using a Caspase-3 Selectivity assay. [Related pubchem assays (depositor defined):AID2540, AID2599, AID434973, AID489001]; format: functional
T3 sequence (P42574 whole entry): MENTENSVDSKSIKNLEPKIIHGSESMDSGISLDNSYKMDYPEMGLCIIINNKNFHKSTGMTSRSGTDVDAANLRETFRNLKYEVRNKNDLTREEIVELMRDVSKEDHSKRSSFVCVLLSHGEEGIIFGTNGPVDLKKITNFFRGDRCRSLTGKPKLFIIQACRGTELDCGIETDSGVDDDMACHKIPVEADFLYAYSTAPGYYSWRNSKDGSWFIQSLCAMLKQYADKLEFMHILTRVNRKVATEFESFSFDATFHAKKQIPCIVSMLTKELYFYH

Chain of Mothers against decapentaplegic homolog 3 (P84022 whole entry): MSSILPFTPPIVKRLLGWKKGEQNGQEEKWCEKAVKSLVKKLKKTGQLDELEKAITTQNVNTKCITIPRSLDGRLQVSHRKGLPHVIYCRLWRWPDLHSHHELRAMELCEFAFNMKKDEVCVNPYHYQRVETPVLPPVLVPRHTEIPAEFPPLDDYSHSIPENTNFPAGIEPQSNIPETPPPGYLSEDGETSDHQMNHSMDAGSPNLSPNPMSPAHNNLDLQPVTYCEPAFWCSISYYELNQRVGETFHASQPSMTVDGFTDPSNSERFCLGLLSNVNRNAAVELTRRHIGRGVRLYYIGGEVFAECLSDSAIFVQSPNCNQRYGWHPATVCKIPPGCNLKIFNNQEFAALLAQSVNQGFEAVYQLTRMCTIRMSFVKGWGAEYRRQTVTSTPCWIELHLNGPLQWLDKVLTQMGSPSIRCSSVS

Compound: Cn1nc(-c2ccc(Cl)cc2)nc2c(=O)n(C)c(=O)nc1-2
IC50 [1]: 0.039 µM (active)
IC50 [2]: 0.996 µM (active)
IC50 [3]: > 50 µM (not active)
IC50 [4]: > 4.43 µM (active)
EC50 [5]: 4.07 µM (active)
EC50 [6]: 16.8 µM (active)

Compound: COc1ccc(C(NC(=O)C(C)C)c2ccc3cccnc3c2O)cc1 (stereo not given)
AC50 [7]: 2.27 µM (active)
AC50 [8]: 1.35 µM (active)
EC50 (cells): 5.77 µM (active)

Compound: O=C(Cc1ccc([N+](=O)[O-])cc1)N/N=C/c1ccc([N+](=O)[O-])o1
EC50 (BJ): > 150 µM (not active)
EC50 [9]: 38.3 µM (active)

Compound: SC1=Nc2ccccc2C1
AC50 [10]: 3.88 µM (active)

AC50 (Caspase-7): > 22 µM (inactive)
Compound: NS(=O)(=O)c1ccc(NC(=O)COC(=O)c2ccc([N+](=O)[O-])s2)cc1

IC50 [11]: 82 µM (active)
IC50 (Caspase-3): > 99 µM (inactive)
Compound: CCCCNc1cc(NC(C)=O)cc2cc(OC)c(OC)cc12
